Reference: publication PMC9894685, “Abscisic acid agonists suitable for optimizing plant water use” (Frontiers in Plant Science, 2023)
Entries after “also recorded” stand apart in the source; their conditions may differ. Each block holds one compound with its values, some of them ahead of it.

Columns and labels:
LC-MS log p = assay type: physicochemical
Protocol: Cyano cyclopropyl ABA analogs were provided by Bayer (Division Crop Science, Höchst, Germany). All CCPs, except CCP8, were synthesized as described ([Frackenpohl et al., 2018]). For the synthesis of CCP8, ethyl-(2Z)-6-(1-cyanocyclopropyl)-3-ethyl-6-hydroxy-7-methyloct-2-en-4-ynoate, copper (I) iodide (7 mg, […]) and bis (triphenylphosphine) palladium (II) chloride (19 mg, 0.03 mmol) were charged under argon, and toluene (3 mL) together with ethyl (2Z)-3-iodopent-2-enoate (233 mg, 0.9 mmol; column chromatography purification of a crude product as described by [Frackenpohl et al., 2018]) were added at room temperature. After stirring for 10 min, 1-(3-hydroxy-4-methylpent-1-yn-3-yl) cyclopropanecarbonitrile (150 mg, 0.9 mmol; synthesis as describe by [Frackenpohl et al., 2018]) dissolved in toluene (3 mL) and diisopropylamine (0.4 mL, 2.8 mmol) were added. The resulting reaction mixture was stirred for 3 h prior to addition of water. The aqueous phase was extracted repeatedly with dichloromethane. The combined organic phases were dried over magnesium sulphate, filtered, and concentrated under reduced pressure. […]

[1] = target: ABI2 (Arabidopsis thaliana) (UniProt O04719)
wheat plants = assay: Foliar administration and thermal imaging of leaf temperature, wheat; assay type: in vivo, Triticum aestivum; conditions: 100 μM, 24 h after administration
Protocol: (§1) Thermal imaging was carried out as described ([Yang et al., 2016]). An assessment of the efficacy of ABA and CCPs was conducted by using 35-day-old Arabidopsis and 30-day-old wheat plants. Stock solutions (10 mM) of CCPs and ABA dissolved in dimethyl sulfoxide (DMSO) were diluted to the respective ligand concentrations (10, 30, 100 µM) in water containing 0.01% (v/v) Tween 20. Aqueous Tween 20 solutions supplemented with 0.1%, 0.3%, and 1% DMSO served for mock treatments. The solutions were sprayed onto the leaf surface until the run-off of droplets. One day after application (unless otherwise indicated), thermal imaging was conducted using the InfraTec instrument (IR-TCM 384, InfraTec, Dresden, Germany). The leaf temperature of Arabidopsis was determined as the average temperature of all leaves. The leaf temperature of wheat was determined as described ([Yang et al., 2019]).

Arabidopsis plants = assay: Foliar administration and thermal imaging of leaf temperature (transpiration), Arabidopsis; assay type: in vivo, Arabidopsis thaliana; conditions: for Leaf temperature increase, activity compared to ABA: 10, 30, 100 µM, one day after application
Protocol: as §1

RCAR11-ABI2 = test system: T1, RCAR11-ABI2; assay: In vitro phosphatase assay, ABI2 with RCAR11; assay type: biochemical, Arabidopsis thaliana; conditions: esterase-treated
T1 construct: 6xHis (N); made in house; host or cells: Escherichia coli BL21
Protocol: Expression, purification, and analysis of RCAR and PP2C proteins were performed essentially as described ([Ruschhaupt et al., 2019]). Briefly, the ABA receptors RCAR1, RACR8, and RCAR11 were expressed with an aminoterminal histidine tag using the pSEVA431_LII_6xHIS::RCAR1/RCAR8/RCAR11. ABA coreceptors were expressed as histidine-tagged fusions with the maltose-binding protein using the pSEVA431_LII_6xHIS::MBP::ABI2/HAB1. All constructs were transformed and expressed in Escherichia coli strain BL21 and purified to homogeneity according to supplier’s instruction (GE Healthcare, Chicago, USA). The receptor assay was performed with 100 nM PP2C and a two-fold molar excess of RCAR. Values are means ± SD of three replicates. […] The maximum inhibition was set to 100% in the figures. The phosphatase activity was measured using 4-methylumbelliferyl-phosphate as a substrate ([Meinhard and Grill, 2001]). The increase in fluorescence was recorded over 25 min with excitation and emission wavelengths at 360 and 460 nm, respectively, using a Synergy 2 plate reader (Bio-Tec, Winooski, USA).

[2] = test system: Arabidopsis aba2-1 protoplasts; assay: Transient ABA response in Arabidopsis protoplasts (pRD29B::LUC, RCAR11 and ABI2 effectors); assay type: cell-based, Arabidopsis thaliana
Protocol: Preparation of Arabidopsis protoplasts, transfection of the effector DNA, and analysis of LUC activity were performed as described ([Tischer et al., 2017]). In essence, 10^5 mesophyll protoplasts from leaves of the ABA deficient mutant aba2-1 ([Schwartz et al., 1997]) were transfected with 4 µg DNA of the pRD29B::LUC construct as an ABA-responsive reporter and 3 µg of p35S::GUS (β-glucuronidase reporter gene) expression cassette as an internal control for normalization. In addition, 3 µg p35S::RCAR11 or the empty vector with the same expression cassette were co-expressed with 0.1 µg p35S::ABI2 effector constructs ([Tischer et al., 2017]), and the ligand-dependent induction of ABA-responsive reporter expression were assessed after incubation at 22°C. The expression of LUC and GUS was determined 18 h after transfection and ligand administration.

Chain of ABI2 (Arabidopsis thaliana) (O04719 whole entry): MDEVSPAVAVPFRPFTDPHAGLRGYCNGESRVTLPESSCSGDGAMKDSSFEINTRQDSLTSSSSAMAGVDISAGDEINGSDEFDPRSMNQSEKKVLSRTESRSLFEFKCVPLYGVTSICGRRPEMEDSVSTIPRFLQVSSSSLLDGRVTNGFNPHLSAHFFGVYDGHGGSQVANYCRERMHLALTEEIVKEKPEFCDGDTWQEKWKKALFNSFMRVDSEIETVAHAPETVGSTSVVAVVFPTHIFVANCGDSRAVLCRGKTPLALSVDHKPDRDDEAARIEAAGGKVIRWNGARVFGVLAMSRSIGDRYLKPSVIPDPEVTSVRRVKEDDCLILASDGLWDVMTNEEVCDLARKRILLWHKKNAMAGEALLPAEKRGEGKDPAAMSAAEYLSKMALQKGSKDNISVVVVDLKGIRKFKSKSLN

chromatographic logP (LC-MS log p): 1.39
Compound: CCOC(=O)/C=C(\C#CC(O)(C(C)C)C1(C#N)CC1)CC (stereo not shown) [CCP8, ethyl-(2Z)-6-(1-cyanocyclopropyl)-3-ethyl-6-hydroxy-7-methyloct-2-en-4-ynoate]

induction of the ABRE-LUC reporter in yeast expressing RCAR11, ABI2, OST1 and ABF2, with 30 µM ABA or CCP1 against mock-treated cells (dose series with ABA, CCP1, CCP2 in Figure 2A) [1]: 8 fold
Compound: RCAR11/PYR1 (from UniProt O49686 1-191) (receptor)

Activity with RCAR11-ABI2 receptor complex compared to ABA (RCAR11-ABI2): slightly lower activity than ABA
Compound: COC(=O)/C=C(\C=C\C(O)(C(C)C)C1(C#N)CC1)C(F)(F)F (stereo not shown) [CCP4]
Leaf temperature increase, activity compared to ABA (wheat plants): somewhat less active
Leaf temperature increase, activity compared to ABA (Arabidopsis plants): moderately higher activity compared to ABA

Activity with RCAR11-ABI2 receptor complex compared to ABA (RCAR11-ABI2): slightly lower activity than ABA
Compound: COC(=O)/C=C(\C=C\C(O)(C1CCCC1)C1(C#N)CC1)C(F)(F)F (stereo not shown) [CCP6]
Leaf temperature increase, activity compared to ABA (Arabidopsis plants): somewhat lower efficacy

Activity with RCAR11-ABI2 receptor complex compared to ABA (RCAR11-ABI2): slightly lower activity than ABA
Concentration for half-maximum inhibition of ABI2 relative to ABA (RCAR11-ABI2; approximately 60% conversion into free acid): twofold
Compound: COC(=O)/C=C(\C=C\C(O)(C1CC1)C1(C#N)CC1)C(F)(F)F (stereo not shown) [CCP5]
Leaf temperature increase, activity compared to ABA (wheat plants): somewhat less active
Potency in reducing transpiration compared to ABA (Arabidopsis plants; 10 µM): more potent than 100 µM ABA
Leaf temperature increase, activity compared to ABA (Arabidopsis plants): more efficacious than ABA and even exceeding the efficacy of CCP1 to CCP3
Duration of persistent response (Arabidopsis plants; 10 and 30 µM ligand treatment): 10 days
Potency relative to ABA (Arabidopsis plants; 10 and 30 µM ligand vs 100 µM ABA): more than tenfold; also recorded: more than ten times
Duration of effect relative to ABA (Arabidopsis plants; 10 and 30 µM ligand vs ABA): approximately three times
Efficiency in minimizing transpiration compared to ABA (Arabidopsis plants; foliar application): by an order of magnitude more efficient than ABA
Activity and persistence of minimized transpiration compared to ABA (Arabidopsis plants; single application 100 µM, recorded for 19 days): more active and persistent than ABA
Induction of ABA signaling compared to ABA ([2]; aba2-1 protoplasts, 18 h ligand exposure): most active compound
Higher induction rates than ABA ([2]; at different ligand concentrations): up to 60%
